From patent US11213495B2, “Method and composition for decreasing the psychotomimetic side effect and addictive disorder of ketamine” (NATIONAL HEALTH RESEARCH INSTITUTES, priority 2016, dated 2022)

Columns and labels:
Format in all cases: in vivo
[1] = system: Male ICR mice; test: Rotarod test (motor coordination); conditions: DMG 30 and 100 mg/kg prior to ketamine 30 mg/kg
Experimental: Motor coordination was examined using an automated rotarod device (Singa; Technology Co., Ltd, Taiwan) for a maximum of 6 mice. A computer recorded the latency to fall in seconds. During two-three days training period, the mice were first trained on the rotarod at a constant speed of 20 rotations per minute (rpm) until all of the mice were able to spend at least 3 min on the road. The test drug (0, 30 and 100 mg/kg) was administered 30 min prior to the ketamine (30 mg/kg) or saline injection. Then, the mice were tested 10, 15, 20, 25, and 30 min after ketamine injection.

[2] = system: Male ICR mice; test: Forced swim test (FST): duration of immobility, struggling and swimming
[3] = system: Male ICR mice; test: Novel location recognition test (NLRT); conditions: DMG 100 mg/kg pretreatment, ketamine 30 mg/kg; 30 min after sample phase
Experimental: (§1) The novel location recognition test (NLRT) and novel object recognition test (NORT) were examined in a Plexiglas open field box (35×35×30 cm) located in a sound-attenuated room and illuminated with a 20-W light bulb. The novel location and novel object recognition procedure consisted of habituation, training, and retention sessions. Habituation was conducted in two consecutive daily sessions, during which each mouse was allowed to individually explore the box in the absence of objects for 20 min. The animal is then removed from the arena and placed in its home cage. During the sample phase, each animal was placed in the box, and after 5 min, two identical sample objects (A+A) were simultaneously introduced in two corners. Each animal was allowed to explore the objects for 5 min. An animal was considered to explore the object when its head was facing the object at a distance of approximately 1 cm or less between the head and object or when it was touching or sniffing the object. The time spent exploring each object was recorded using stopwatches by an experimenter blind to the treatment condition.
After the sample phase, the mice were immediately returned to their home cages. […] The animals were allowed to explore the box freely for 5 min, and the time spent exploring each object was recorded as described above. […]

[4] = system: Male ICR mice; test: Prepulse inhibition test (PPI) of acoustic startle; conditions: DMG 100 mg/kg pretreatment, ketamine 30 mg/kg; p<0.001
Experimental: The PPI was operated as described in our previous work (Chan et al., 2012a). Briefly, the animals were initially moved from the home cage, weighed, and then placed into the restrainers in the SR-LAB (San Diego Instruments, San Diego, Calif., USA) acoustic startle chambers for 30-min habituation. The test drug (0, 30 and 100 mg/kg) was administered 30 min prior to ketamine (30 mg/kg) or saline injection. After administration of ketamine or saline, the experiment started with a 5-min adaptation period during which the animals were exposed to 67-dB background white noise, and this background noise was continued throughout the session. Then, the following adaptation period startle session began with five initial startle stimuli (120 dB bursts of white noise, 40 ms duration). After the first five initial stimuli, mice received five different trial types: pulse alone trials (120 dB bursts of white noise, 40 ms duration), three prepulse and pulse trials in which 76, 81, or 86 dB white noise bursts (9, 14, and 19 dB above background) of 20 ms duration preceded 120 dB pulse by 100 ms prepulse onset to pulse onset, and no-stimuli trials during which only background noise was applied. Each of these trial types was presented five times in randomized order. The inter trial interval was 7-23 s, and the test lasted 15 min in total. Prepulse inhibition was calculated as the percent inhibition of the startle amplitude evoked by the pulse alone: % PPI=(magnitude on pulse alone trial−magnitude on prepulse+pulse trial/magnitude on pulse alone trial)×100.

[5] = system: Male ICR mice; test: Open field test / locomotor activity; conditions: DMG 30 and 100 mg/kg pretreatment 30 min prior to ketamine 30 mg/kg
Experimental: To evaluate the effect of DMG on ketamine-induced locomotor hyperactivity, the animals were moved from the home cage, weighed and placed into an activity cage (Columbus Auto-Track System, Version 3.0 A, Columbus Institute, Columbus, Ohio, USA) for 2 hours. Thereafter, the test drug (0, 30, and 100 mg/kg) was given 30 min prior to ketamine (30 mg/kg) or saline. The distance (cm) traveled was recorded for totally 180 min. A 70% alcohol solution was used to clean the inner surface of all the testing apparatus between trials to remove any potentially interfering odors left by the previous mouse.

[6] = system: Male ICR mice; test: Loss of righting reflex (LORR); conditions: DMG 100 and 300 mg/kg 30 min prior to ketamine 100 mg/kg
Experimental: The test drug betaine (0, 300, and 600 mg/kg) or DMG (0, 100 and 300 mg/kg) was administered 30 min prior to the anesthetic doses of ketamine (100 mg/kg). Then, the mice were placed in a clean cage until the righting reflex was lost. They were then placed in the supine position until recovery and the onset and duration of the loss of righting reflex was recorded. Recovery of the righting reflex was defined as the ability to perform three successive rightings.

[7] = system: Male ICR mice; test: Forced swim test (FST): duration of immobility, struggling and swimming; conditions: DMG 30 mg/kg pretreatment prior to ketamine 10 mg/kg
Experimental: FST was conducted for two consecutive days. Mice were placed in a Plexiglas cylinder (33.5 cm height, 20 cm diameter) filled with 25±2° C. water to a height of 18-20 cm. For the first exposure, mice were placed in the water for 15 min (pre-test session) followed by […]. Twenty-four hours later (day 1 test session), various doses of test drug (at 0, 30 and 100 mg/kg) was administered 30 min prior to the ketamine (10 mg/kg) or saline. Then, the mice were tested 30 min after ketamine injection which placed in the water again for a 6 min session (test session), the first 2 minutes has elapsed. Immobility was assigned when no additional activity was observed other than that required to keep the head above the water.
This experiment included a control group and various doses of ketamine (3, 10, 15 mg/kg), betaine (10, 20, 30 mg/kg) and betaine (10, 20, 30 mg/kg) pretreatment prior to ketamine (fixed dose at 10 mg/kg). […] There was no significant effect of test session or interaction.

[8] = system: Male Sprague-Dawley rats; test: Ketamine intravenous self-administration (IVSA) under progressive ratio (PR) schedule
Experimental: The dose-dependent effects of betaine and its metabolite DMG on ketamine addiction were evaluated by the intravenous self-administration (IVSA) paradigm under a progressive ratio (PR) schedule. Animals were implanted indwelling catheters flushing of ketamine (0.5 mg/kg/per infusion), termed the training dose, under a FR1 schedule during daily 3-h sessions. After acquisition of stable responding for ketamine (criterion of less than 20% deviation from the mean of the total number of reinforcers earned in three consecutive sessions for each rat), the ketamine reinforcement schedule was changed to FR2 and maintained until responding stabilized at least for 3 days. Then, the PR schedule was conducted. The lever presses required to gain an infusion was determined by: 5×e^(infusion number×0.2)−5 (i.e., 1, 2, 4, 6, 9, […], 15, 20, 25, 32, etc). […] The dose-dependent effects of betaine of self-administration of various doses of ketamine ([…]) were assessed by pretreatment 30 min prior to their daily operant session using a within-subject Latin square design.

[9] = system: Male ICR mice; test: Novel object recognition test (NORT); conditions: DMG 100 mg/kg pretreatment, ketamine 30 mg/kg; 24 h after sample phase
Experimental: as §1
After the sample phase, the mice were immediately returned to their home cages. The novel location recognition test was conducted 30 min after the training session. The animals were returned to the same box as during the sample phase, and one of the two objects was replaced with a novel local corner (A+A′) to test the location-based recognition memory. After 24 hours, novel object recognition test was performed. The mice are allowed to explore the open field with one identical sample object and a novel object to assess the novel object recognition memory (A+B). The animals were allowed to explore the box freely for 5 min, and the time spent exploring each object was recorded as described above. The objects and chambers were cleaned with 70% ethanol after each use. A preference index, a ratio of the amount of time spent exploring the original object or the novel location/object over the total time spent exploring both objects, was used to evaluate recognition memory. […]

Compound: CN(C)CC(=O)O [DMG, N,N-dimethylglycine]
- ketamine-induced motor in coordination [1]: significantly reduced
- duration of immobility in FST ([2]; DMG 10, 20 and 30 mg/kg alone): significantly decreased
- duration of immobility in FST ([2]; DMG 10, 20 and 30 mg/kg pretreatment prior to ketamine 10 mg/kg): significantly decreased
- ketamine-induced recognition memory impairment in NLRT [3]: significantly attenuated
- ketamine-induced disruption of PPI [4]: significantly attenuated
- ketamine-induced locomotor hyperactivity [5]: reduced
- duration of ketamine-induced loss of righting reflex [6]: did not affect
- onset of ketamine-induced loss of righting reflex [6]: did not affect
- duration of immobility in FST compared with ketamine (10 mg/kg) alone [7]: significantly shorter duration of immobility
- reduction of cumulative responses by ketamine ([8]; DMG 100 mg/kg pretreatment, ketamine 0.3 mg/kg/infusion, PR schedule): 40%
- ketamine self-administration under PR schedule ([8]; DMG pretreatment): significantly decreased
- ketamine-induced recognition memory impairment in NORT [9]: significantly attenuated
